Experimental data as given in the NIST ThermoML archive (doi:10.1021/acs.jced.6b00536).
Numbers after ± are expanded uncertainties.

Assay: xn = mol fraction of the nth substance listed
Conditions: Gas, Frequency=0.05 MHz, Single path-length method, x2 = 0.058

FC(F)(F)C(F)(F)C(F)(F)F [octafluoropropane] + N#N
Conditions | speed of sound [m/s]
252.62 K, 0.0858 kPa | 109 ± 0.13
252.62 K, 0.1039 kPa | 108.4 ± 0.12
252.62 K, 0.1203 kPa | 107.8 ± 0.11
252.62 K, 0.137 kPa | 107.18 ± 0.11
252.62 K, 0.1525 kPa | 106.62 ± 0.1
252.62 K, 0.1669 kPa | 106.06 ± 0.1
252.62 K, 0.1773 kPa | 105.75 ± 0.09
252.62 K, 0.1861 kPa | 105.38 ± 0.09
252.62 K, 0.1862 kPa | 105.38 ± 0.09
257.71 K, 0.08757 kPa | 110.16 ± 0.09
257.71 K, 0.1056 kPa | 109.59 ± 0.09
257.71 K, 0.1227 kPa | 109 ± 0.09
257.71 K, 0.1398 kPa | 108.4 ± 0.09
257.71 K, 0.1558 kPa | 107.86 ± 0.09
257.71 K, 0.1702 kPa | 107.33 ± 0.09
257.71 K, 0.181 kPa | 107.04 ± 0.1
257.71 K, 0.1898 kPa | 106.68 ± 0.09
257.71 K, 0.19 kPa | 106.68 ± 0.09
257.71 K, 0.2222 kPa | 105.46 ± 0.09
257.71 K, 0.2396 kPa | 104.86 ± 0.11
257.71 K, 0.2541 kPa | 104.28 ± 0.1
257.71 K, 0.2547 kPa | 104.37 ± 0.1
262.83 K, 0.08917 kPa | 111.32 ± 0.1
262.83 K, 0.1075 kPa | 110.77 ± 0.1
262.83 K, 0.125 kPa | 110.2 ± 0.1
262.83 K, 0.1429 kPa | 109.63 ± 0.1
262.83 K, 0.1589 kPa | 109.12 ± 0.1
262.83 K, 0.1737 kPa | 108.6 ± 0.1
262.83 K, 0.1844 kPa | 108.31 ± 0.1
262.83 K, 0.1937 kPa | 107.97 ± 0.1
262.83 K, 0.1942 kPa | 107.97 ± 0.1
262.83 K, 0.2273 kPa | 106.8 ± 0.1
262.83 K, 0.2449 kPa | 106.21 ± 0.1
262.83 K, 0.2605 kPa | 105.64 ± 0.1
262.83 K, 0.2771 kPa | 105.01 ± 0.11
262.83 K, 0.2894 kPa | 104.6 ± 0.1
267.94 K, 0.09058 kPa | 112.46 ± 0.1
267.94 K, 0.1095 kPa | 111.93 ± 0.1
267.94 K, 0.1273 kPa | 111.39 ± 0.1
267.94 K, 0.1462 kPa | 110.83 ± 0.1
267.94 K, 0.1619 kPa | 110.33 ± 0.1
267.94 K, 0.1773 kPa | 109.83 ± 0.1
267.94 K, 0.1883 kPa | 109.56 ± 0.1
267.94 K, 0.1978 kPa | 109.24 ± 0.1
267.94 K, 0.1983 kPa | 109.23 ± 0.1
267.94 K, 0.2324 kPa | 108.11 ± 0.1
267.94 K, 0.2503 kPa | 107.55 ± 0.1
267.94 K, 0.2663 kPa | 106.99 ± 0.1
267.94 K, 0.2836 kPa | 106.41 ± 0.1
267.94 K, 0.2966 kPa | 105.98 ± 0.09
273.07 K, 0.09281 kPa | 113.6 ± 0.1
273.07 K, 0.1111 kPa | 113.09 ± 0.1
273.07 K, 0.1299 kPa | 112.57 ± 0.1
273.07 K, 0.149 kPa | 112.03 ± 0.1
273.07 K, 0.1655 kPa | 111.55 ± 0.1
273.07 K, 0.1819 kPa | 111.06 ± 0.1
273.07 K, 0.1923 kPa | 110.81 ± 0.1
273.07 K, 0.2019 kPa | 110.5 ± 0.1
273.07 K, 0.2023 kPa | 110.49 ± 0.1
273.07 K, 0.2381 kPa | 109.41 ± 0.1
273.07 K, 0.2555 kPa | 108.88 ± 0.1
273.07 K, 0.2726 kPa | 108.31 ± 0.1
273.07 K, 0.2918 kPa | 107.72 ± 0.1
273.07 K, 0.3039 kPa | 107.38 ± 0.1
278.15 K, 0.0943 kPa | 114.71 ± 0.1
278.15 K, 0.1132 kPa | 114.22 ± 0.1
278.15 K, 0.1321 kPa | 113.71 ± 0.1
278.15 K, 0.1515 kPa | 113.2 ± 0.1
278.15 K, 0.1686 kPa | 112.73 ± 0.1
278.15 K, 0.1856 kPa | 112.27 ± 0.1
278.15 K, 0.1961 kPa | 112.03 ± 0.1
278.15 K, 0.2057 kPa | 111.72 ± 0.1
278.15 K, 0.2062 kPa | 111.72 ± 0.1
278.15 K, 0.2428 kPa | 110.66 ± 0.1
278.15 K, 0.2609 kPa | 110.16 ± 0.1
278.15 K, 0.2783 kPa | 109.63 ± 0.1
278.15 K, 0.2983 kPa | 109.03 ± 0.1
278.15 K, 0.3119 kPa | 108.65 ± 0.1
283.2 K, 0.09562 kPa | 115.81 ± 0.1
283.2 K, 0.1152 kPa | 115.33 ± 0.1
283.2 K, 0.1344 kPa | 114.84 ± 0.1
283.2 K, 0.1548 kPa | 114.34 ± 0.1
283.2 K, 0.1718 kPa | 113.88 ± 0.1
283.2 K, 0.1892 kPa | 113.45 ± 0.1
283.2 K, 0.1997 kPa | 113.19 ± 0.1
283.2 K, 0.2093 kPa | 112.93 ± 0.1
283.2 K, 0.2102 kPa | 112.92 ± 0.1
283.2 K, 0.2476 kPa | 111.9 ± 0.1
283.2 K, 0.2662 kPa | 111.41 ± 0.1
283.2 K, 0.2839 kPa | 110.89 ± 0.1
283.2 K, 0.3047 kPa | 110.33 ± 0.1
283.2 K, 0.3184 kPa | 109.97 ± 0.14
288.26 K, 0.09724 kPa | 116.9 ± 0.1
288.26 K, 0.117 kPa | 116.43 ± 0.1
288.26 K, 0.1367 kPa | 115.96 ± 0.1
288.26 K, 0.1569 kPa | 115.48 ± 0.1
288.26 K, 0.175 kPa | 115.05 ± 0.1
288.26 K, 0.193 kPa | 114.61 ± 0.1
288.26 K, 0.2034 kPa | 114.38 ± 0.1
288.26 K, 0.2133 kPa | 114.1 ± 0.1
288.26 K, 0.2142 kPa | 114.08 ± 0.1
288.26 K, 0.2525 kPa | 113.14 ± 0.1
288.26 K, 0.2716 kPa | 112.65 ± 0.1
288.26 K, 0.2896 kPa | 112.16 ± 0.1
288.26 K, 0.3111 kPa | 111.61 ± 0.1
288.26 K, 0.3249 kPa | 111.24 ± 0.09
